IC50 data for 21 compounds are collected here from patent US11111230B2 (ADLAI NORTYE BIOPHARMA CO., LTD., priority 2017, dated 2021).

The term IC50 denotes the concentration needed to halve the response being measured.

SMILES strings stand for the structures. Bounds are passed on as bounds.

One assay has as its target T1, human IDO1 protein (Homo sapiens, UniProt P14902).
T1 construct: expressed in transfected cells; host or cells: HEK293
The assay can be described thus: Activity in HEK293 cells highly expressing human IDO1 protein. To be noted: HEK293-IDO cells, tryptophan 16 mg/L, 24 hours, absorption at 480 nm; read-out: IC50 (HEK293 cell). It is filed as cell-based. The protocol:
Example 2: Study on the Activity of the Present Invention in HEK293 Cells Highly Expressing Human IDO1 Protein
HEK293-IDO cells with high expression of human IDO1 protein were prepared by electrotransformation, and the cells were seeded in 96-well culture plates, and cultured at 37° C., 100% relative humidity, and 5% CO2 incubator for 24 hours. Dissolve in DMSO and dilute to the appropriate concentration, then use DMEM medium containing 10% fetal bovine serum to dilute the candidate 100-fold to the final concentration. Aspirate the old medium from the 96-well plate and add 200 μL of the medium contained in the previous step to each well. The content of tryptophan in the medium is 16 mg/L. The cells were placed in a 37° C., 100% relative humidity, and 5% CO2 incubator for 24 hours. 140 μL of the cell culture supernatant was mixed with 15 μL of trichloroacetic acid and placed at 52° C. for 30 min. Mix with an equal volume of Ehrlich's reagent, measure the light absorption at 480 nm, and calculate the IC50 values.

Another assay concerns Hela cells. The assay can be described thus: Activity in Hela cells (interferon-γ induced, kynurenine readout with Ehrlich's reagent). The class given is cell-based. To be noted: Homo sapiens, interferon-γ 50 ng/mL, tryptophan 16 mg/L, 48 hours, absorption at 480 nm. The method, then: Example 1: Study on the Activity of the Compound of the Present Invention in Hela Cells
Hela cells were seeded in 96-well culture plates and incubated at 37° C., 100% relative humidity, 5% CO2 incubator for 24 hours. The compound was dissolved in DMSO and diluted to an appropriate concentration, and then the compound was diluted 100-fold with DMEM medium containing interferon-γ and 10% fetal bovine serum to the final concentration of effect. Aspirate the old medium from the 96-well plate and add 200 μL of each medium containing compound and interferon-γ from the previous step. The content of tryptophan in the medium is 16 mg/L, and the concentration of interferon-γ is 50 ng/mL. The cells were placed in a 37° C., 100% relative humidity, and 5% CO2 incubator for 48 hours, then 140 μL of the cell culture supernatant was mixed with 15 μL of trichloroacetic acid, and placed at 52° C. for 30 min, then centrifuged at room temperature to take the centrifugal supernatant. Mix with an equal volume of Ehrlich's reagent, measure the light absorption at 480 nm, and calculate the IC50 values.

T1 sequence (P14902 whole entry): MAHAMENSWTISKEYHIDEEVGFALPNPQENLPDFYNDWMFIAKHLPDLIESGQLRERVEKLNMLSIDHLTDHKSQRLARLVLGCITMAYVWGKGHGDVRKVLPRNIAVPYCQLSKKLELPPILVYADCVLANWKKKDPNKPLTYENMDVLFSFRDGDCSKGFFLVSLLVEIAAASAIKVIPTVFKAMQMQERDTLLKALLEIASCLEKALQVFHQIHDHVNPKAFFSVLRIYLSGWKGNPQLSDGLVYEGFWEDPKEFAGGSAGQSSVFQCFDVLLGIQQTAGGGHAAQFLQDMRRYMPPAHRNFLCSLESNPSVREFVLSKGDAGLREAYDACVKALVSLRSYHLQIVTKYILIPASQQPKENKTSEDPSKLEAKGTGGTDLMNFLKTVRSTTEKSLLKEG

As for `Cc1cc2nccc(C3CCC4(CC3)CC4C(=O)Nc3ccc(Cl)cc3)c2cc1F` (stereo not drawn) [Compound 9, N-(4-chlorophenyl)-6-(6-fluoro-7-methylquinolin-4-yl)spiro[2.5]octane-1-carboxamide], the IC50 at human IDO1 protein and with Hela cells was 0.1 to 10 nM throughout.

As to `O=C(Nc1ccc(Br)cc1)C1CC12CCC(c1ccnc3ccc(F)cc13)CC2` (stereo not drawn) [Compound 11, N-(4-bromophenyl)-6-(6-fluoroquinolin-4-yl)spiro[2.5]octane-1-carboxamide], the concentration for half-maximal inhibition (IC50) at human IDO1 protein is 10 to 100 nM; in the assay on Hela cells, 0.1 to 10 nM.

Take `O=C(Nc1ccc(Cl)c(F)c1)C1CC12CCC(c1ccnc3ccc(F)cc13)CC2` (stereo not drawn) [Compound 12, N-(4-chloro-3-fluorophenyl)-6-(6-fluoroquinolin-4-yl)spiro[2.5]octane-1-carboxamide]: the IC50 at human IDO1 protein and in the assay on Hela cells was 10 to 100 nM throughout.

Take `O=C(Nc1ccc(Cl)s1)C1CC12CCC(c1ccnc3ccc(F)cc13)CC2` (stereo not drawn) [Compound 13, N-(5-chlorothiophen-2-yl)-6-(6-fluoroquinolin-4-yl)spiro[2.5]octane-1-carboxamide]: the IC50 on human IDO1 protein and in the assay with Hela cells was 10 to 100 nM throughout.

As to `COCCOc1ccc(NC(=O)C2CC23CCC(c2ccnc4cc(C)c(F)cc24)CC3)cc1` (stereo not drawn) [Compound 94, 6-(6-fluoro-7-methylquinolin-4-yl)-N-(4-(2-methoxyethoxy)phenyl)spiro[2.5]octane-1-carboxamide], the IC50 lay in the range of 10 to 100 nM at human IDO1 protein and 0.1 to 10 nM in the assay with Hela cells.

Turning to `Cc1cc2nccc(C3CCC4(CC3)CC4C(=O)Nc3ccc(Cl)nc3)c2cc1F` (stereo not drawn) [Compound 95, N-(6-chloropyridin-3-yl)-6-(6-fluoro-7-methylquinolin-4-yl)spiro[2.5]octane-1-carboxamide], the concentration for half-maximal inhibition (IC50) is 10 to 100 nM on human IDO1 protein and 0.1 to 10 nM in the assay on Hela cells.

For the compound `Cc1cc2nccc(C3CCC4(CC3)CC4C(=O)Nc3cncc(Cl)c3)c2cc1F` (stereo not drawn) [Compound 96], the figures for the IC50 at human IDO1 protein and with Hela cells were more than 100 nM and 10 to 100 nM, respectively.

Take `Cc1cc2nccc(C3CCC4(CC3)CC4C(=O)Nc3ccnc(Cl)c3)c2cc1F` (stereo not drawn) [Compound 97]: the IC50 on human IDO1 protein and with Hela cells was more than 100 nM each time.

With `O=C(Nc1ccc(Cl)cc1)C1CC12CCC(c1ccnc3cc(F)c(F)cc13)CC2` (stereo not drawn) [Compound 100, N-(4-chlorophenyl)-6-(6,7-difluoroquinolin-4-yl)spiro[2.5]octane-1-carboxamide], the results for the IC50 at human IDO1 protein and with Hela cells were 10 to 100 nM and 0.1 to 10 nM, respectively.

With `COc1cc2nccc(C3CCC4(CC3)CC4C(=O)Nc3ccc(Cl)cc3)c2cc1OC` (stereo not drawn) [Compound 101], the half-inhibitory concentration (IC50) on human IDO1 protein lay in the range of 10 to 100 nM; with Hela cells, 0.1 to 10 nM.

`N#Cc1cc2nccc(C3CCC4(CC3)CC4C(=O)Nc3ccc(Cl)cc3)c2cc1F` (stereo not drawn) [Compound 102, N-(4-chlorophenyl)-6-(7-cyano-6-fluoroquinolin-4-yl)spiro[2.5]octane-1-carboxamide]: the figures for the IC50 at human IDO1 protein and in the assay on Hela cells were 10 to 100 nM and 0.1 to 10 nM, respectively.

Consider `O=C(Nc1ccc(Cl)cc1)C1CC12CCC(c1ccnc3cc4c(cc13)OCCO4)CC2` (stereo not drawn) [Compound 103, N-(4-chlorophenyl)-6-(2,3-dihydro-[1,4]dioxino[2,3-g]quinolin-9-yl)spiro[2.5]octane-1-carborboxamide], for which the IC50 at human IDO1 protein and with Hela cells was more than 100 nM throughout.

Take `O=C(Nc1ccc(Cl)cc1)C1CC12CCC(O)(c1ccnc3ccc(F)cc13)CC2` (stereo not drawn) [Compound 104, N-(4-chlorophenyl)-6-(6-fluoroquinolin-4-yl)-6-hydroxyspiro[2.5]octane-1-carboxamide]: the IC50 at human IDO1 protein and with Hela cells was more than 100 nM throughout.

For the compound `COc1cc2nccc(C3CCC4(CC3)CC4C(=O)Nc3ccc(Cl)cc3)c2cc1F` (stereo not drawn) [Compound 105, N-(4-chlorophenyl)-6-(6-fluoro-7-methoxyquinolin-4-yl)spiro[2.5]octane-1-carboxamide], the IC50 was in the range of 0.1 to 10 nM on human IDO1 protein and 10 to 100 nM in the assay on Hela cells.

Turning to `CC1(C(=O)Nc2ccc(Cl)cc2)CC12CCC(c1ccnc3ccc(F)cc13)CC2` (stereo not drawn) [Compound 106, N-(4-chlorophenyl)-6-(6-fluoroquinolin-4-yl)-1-methylspiro[2.5]octane-1-carboxamide], the IC50 on human IDO1 protein and in the assay with Hela cells was more than 100 nM throughout.

Take `N#CC1(C(=O)Nc2ccc(Cl)cc2)CC12CCC(c1ccnc3ccc(F)cc13)CC2` (stereo not drawn) [Compound 107, N-(4-chlorophenyl)-1-cyano-6-(6-fluoroquinolin-4-yl)spiro[2.5]octane-1-carboxamide]: the IC50 at human IDO1 protein and in the assay with Hela cells was more than 100 nM each time.

For `O=C(Nc1ccc(Cl)cc1)C1CC12CCC(c1ccnc3cc4c(cc13)OCO4)CC2` (stereo not drawn) [Compound 110, 6-([1,3]dioxolo[4,5-g]quinolin-8-yl)-N-(4-chlorophenyl)spiro[2.5]octane-1-carboxamide], the 50% inhibitory concentration (IC50) is more than 100 nM at human IDO1 protein and 10 to 100 nM with Hela cells.

As to `COC(=O)COc1ccc(NC(=O)C2CC23CCC(c2ccnc4cc(C)c(F)cc24)CC3)cc1` (stereo not drawn) [Compound 111, Methyl 2-(4-(6-(6-fluoro-7-methylquinolin-4-yl)spiro[2.5]octane-1-carboxamido)phenoxy)acetate], the half-maximal inhibitory concentration (IC50) at human IDO1 protein and in the assay with Hela cells was more than 100 nM throughout.

For `Cc1cc2nccc(C3CCC4(CC3)CC4C(=O)Nc3ccc(OCCO)cc3)c2cc1F` (stereo not drawn) [Compound 112, 6-(6-fluoro-7-methylquinolin-4-yl)-N-(4-(2-hydroxyethoxy)phenyl)spiro[2.5]octane-1-carboxamide], the figures for the concentration for half-maximal inhibition (IC50) at human IDO1 protein and in the assay on Hela cells were more than 100 nM and 10 to 100 nM, respectively.

With `COCCOc1ccc(NC(=O)C2CC23CCC(c2ccnc4cc(OC)c(OC)cc24)CC3)cc1` (stereo not drawn) [Compound 113, 6-(6,7-dimethoxyquinolin-4-yl)-N-(4-(2-methoxyethoxy)phenyl)spiro[2.5]octane-1-carboxamide], the IC50 on human IDO1 protein was in the range of 10 to 100 nM; in the assay with Hela cells it was 0.1 to 10 nM.

In the case of `O=C(Nc1ccc(Cl)cc1)C1CC12CCC(c1ccnc3cc(CO)c(F)cc13)CC2` (stereo not drawn) [Compound 114, N-(4-chlorophenyl)-6-(6-fluoro-7-(hydroxymethyl)quinolin-4-yl)spiro[2.5]octane-1-carboxamide], the IC50 lay within 10 to 100 nM on human IDO1 protein and 0.1 to 10 nM with Hela cells.
